These results are taken from patent US12297207B2, “Maytansinoid derivatives, conjugates thereof, and methods of use” (priority 2015, dated 2025).

In data set [1] the test system is C4-2 (PSMA+) cells. The data set is described as follows: In vitro cytotoxicity assay (CCK8 viability), C4-2 cells. The class given is cell-based. The conditions noted are these: for IC50: read-out: C4-2 IC50. As to the method: (§1) In this Example, the ability of various antibody-drug conjugates or their associated payloads to kill antigen-expressing tumor cells in vitro was assessed.
(§2) Ovcar3 (Muc16+) or C4-2 (PSMA+) cells were seeded in 96 well plates at 3000 (C42) cells per well in complete growth media and grown overnight. For cell viability curves, serially diluted conjugates or payloads were added to the cells at final concentrations ranging from 300 nM to 5 pM and incubated for 3 days. To measure viability, cells were incubated with CCK8 (Dojindo) for the final 1-3 hours and the absorbance at 450 nm (OD450) was determined on a Victor (Perkin Elmer). Background OD450 levels determined from digitonin ([…]) treated cells were subtracted from all wells and viability is expressed as a percentage of the untreated controls. IC50 values were determined from a four-parameter logistic equation over a 10-point response curve (GraphPad Prism). All conjugate curves and IC50 values are corrected for payload equivalents.

In data set [2] the test system is Ovcar3 (Muc16+) cells. The data set is described as follows: In vitro cytotoxicity assay (CCK8 viability), Ovcar3 cells. In kind it is cell-based. The conditions noted are these: for IC50: read-out: Ovcar3 IC50. As to the method:
as §1, §2

Data set [3] relates to T47D ductal carcinoma line (PRLR+). The data set is described as follows: In vitro cytotoxicity assay (CellTiter-Glo), T47D cells. The class given is cell-based, human. As to the method: The present example provides cytotoxicity assays for conjugates provided herein. To evaluate the ability of anti-PRLR antibodies conjugated with 63, 60, 77, and 78 to kill a PRLR expressing cell line, an in vitro cytotoxicity assay using a T47D ductal carcinoma line (ATCC, #HTB-133), which was previously determined to express >27,000 copies of human PRLR at its cell surface, was utilized.
For the assay, T47D cells were seeded onto white 96 well plates at 2,000 cells/well in media containing DMEM supplemented with 10% FBS, NEAA, and pencillin/streptomycinin (complete media). They were grown overnight at 37° C. in 5% CO2. To determine cell viability curves, the following day antibody drug conjugates, unconjugated antibodies, or free payloads were added to the cells at final serial dilutions ranging from 100 nM to 0.01 nM in complete medium and then incubated for an additional 5 days. Luciferase activity was detected after the addition of CellTiter-Glo™ reagent (Promega, G7571) to each well, which contains reagents to lyse the remaining viable cells to release their ATP, ATPase inhibitors to prevent degradation of the ATP, as well as luciferin and luciferase to catalyse the luminescent reaction. Viable cells prior to addition of CellTiter-Glo will be the only source of ATP since the dead cells in culture will not synthesis ATP and any of their released ATP will be destroyed via endogenous ATPases. Relative light units (RLUs) were measured on a Victor luminometer (PerkinElmer) and the results were determined using a four-parameter logistic equation over a 10-point response curve (GraphPad Prism). All measured values and calculated IC50 values were corrected for payload equivalents. All IC50 values are expressed in nM concentration and percent kill is reported for the highest concentration tested.

The target in data set [4] is T1, human PRLR extracellular domain (hPRLR-MMH) (Homo sapiens, UniProt P16471).
T1 construct: human PRLR extracellular domain expressed with a C-terminal myc-myc-hexahistidine tag; myc-myc-hexahistidine (MMH) (C); made in house
T1 sequence (P16471 25-234 limits assumed): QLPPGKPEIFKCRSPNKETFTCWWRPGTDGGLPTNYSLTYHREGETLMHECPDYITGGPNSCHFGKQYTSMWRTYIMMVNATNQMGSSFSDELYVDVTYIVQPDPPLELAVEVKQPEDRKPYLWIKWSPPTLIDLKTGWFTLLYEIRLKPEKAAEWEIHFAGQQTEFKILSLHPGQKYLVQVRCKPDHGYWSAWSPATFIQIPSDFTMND
Briefly: Surface plasmon resonance (Biacore 3000) binding kinetics. The following applies: 25° C. As to the method: Equilibrium dissociation constants (KD values) for human PRLR binding to purified anti-PRLR antibodies that were either unmodified H1H6958N2, PRLR-Q, and PRLR-Q-63 were determined using a real-time surface plasmon resonance biosensor using a Biacore 3000 instrument. The Biacore sensor surface was first derivatized by amine coupling with a monoclonal mouse anti-human Fc antibody (GE, #BR-1008-39) to capture anti-PRLR monoclonal antibodies. All binding studies were performed in 0.01M HEPES pH 7.4, 0.15M NaCl, 3 mM EDTA, and 0.05% v/v Surfactant Tween-20 (HBS-ET running buffer) at 25° C. and 37° C. Different concentrations of human PRLR extracellular domain expressed with a C-terminal myc-myc-hexahistidine tag (hPRLR-MMH; SEQ ID NO: 401 as described in patent application WO 2015026907 A1), in HBS-ET running buffer ([…]) were injected over the anti-PRLR antibody captured surface for 4 minutes at a flow rate of 50 μL/minute and their dissociation in HBS-ET running buffer was monitored for 8 minutes. Kinetic association rate constant (ka) and dissociation rate constant (kd) were determined by fitting the real-time sensorgrams to a 1:1 binding model using Scrubber 2.0c curve fitting software. Binding dissociation equilibrium constants (KD) and dissociative half-lives (t½) were calculated from the kinetic rate constants as: […]
Background: In SPR one partner is held on a chip, and binding of the other changes the refractive index at the surface.

Like-named read-outs stand apart in the source and are kept apart here.

Regarding `COc1cc2cc(c1Cl)N(C)C(=O)C[C@H](OC(=O)[C@H](C)N(C)C(=O)c1ccc(N)cc1F)[C@]1(C)O[C@H]1[C@H](C)[C@@H]1C[C@@](O)(NC(=O)O1)[C@H](OC)/C=C/C=C(\C)C2` [Compound 29, Maytansin-N-methyl-L-alanine-(2-fluoro-4-amino)benzamide], the C4-2 % kill is recorded as 83% in data set [1] (Table 2, payloads only) and 83% in data set [1] (Table 5, payloads only). Also, the concentration for half-maximal inhibition (IC50) – broadly, the concentration needed to halve the response being measured – in data set [1] (Table 2, payloads only) was found to be 0.27 nM; in data set [1] (Table 5, payloads only), 0.27 nM; in data set [2] (Table 2, payloads only), 0.13 nM; in data set [2] (Table 5, payloads only), 0.13 nM; in data set [3] (5 days, corrected for payload equivalents, read-out: IC50 (cytotoxicity of T47D cells)), 0.07 nM. The Ovcar3 % kill in data set [2] (Table 2, payloads only) worked out at 93%; in data set [2] (Table 5, payloads only), 93%. The maximum percent killing in data set [3] (T47D cells, highest concentration tested) was found to be 67%. The molecule further yielded a T47D % kill in data set [3] (Table 5, payloads only, highest concentration tested) of 67%.

B1: H1H6958N2 (antibody, V domains shown)
VH: QVQLVESGGGVVQPGRSLRLSCGASGFTFRNYGMQWVRQGPGKGLEWVTLISFDGNDKYYADSVKGRFTISRDNSKNTLFLQMNSLRTEDTAVYYCARGGDFDYWGQGTLVTVSS
VL: DIQMTQSPSSLSASVGDRVTITCRASQDIRKDLGWYQQKPGKAPKRLIYAASSLHSGVPSRFSGSGSGTEFTLTISSLQPEDFATYYCLQHNSYPMYTFGQGTKLEIK
As for B1, in data set [4], the “ka” value stood at 417000 M⁻¹ s⁻¹ and the “kd” value amounted to 0.000454 s⁻¹. Moreover, in data set [4] (antibody captured on anti-human Fc surface), the “100 nM hPRLR-MMH Bound (RU)” value is 38 RU. In data set [4] (calculated from kinetic rate constants, read-out: KD), the Kd (commonly the free concentration of one partner at which half of the binding sites on the other are occupied at equilibrium, for simple one-to-one binding) is 1.09 nM. The equilibrium dissociation constant (Kd) in data set [4] (read-out: KD value) amounted to 1.09 nM.
